Literature values, collected in patent US6743953B2, “Process for the preparation of xanthophyll crystals” (Kancor Flavours & Extracts Ltd., priority 2002, dated 2004).
Like-named read-outs stand apart in the source and are kept apart here.

Columns and labels:
[1] = not given; remark: listed apart in the source

In the case of CC1=C[C@H](O)CC(C)(C)[C@H]1/C=C/C(C)=C/C=C/C(C)=C/C=C/C=C(C)/C=C/C=C(C)/C=C/C1=C(C)C[C@@H](O)CC1(C)C [Lutein, (3R,3′R,6′R)-β,ε-carotene-3,3′-diol], the “Stability of Lutein in Solvent” value (solvent Acetone) is listed as “Good”, the “Stability of Lutein in Solvent” value (solvent Benzene) is listed as “Good” and the “Stability of Lutein in Solvent” value (solvent Chloroform) is listed as “Good”. For the same compound, the “Stability of Lutein in Solvent” value (solvent Cyclohexanone) was “Poor”, the “Stability of Lutein in Solvent” value (solvent Dichloromethane) was “Good” and the “Stability of Lutein in Solvent” value (solvent Ethyl Acetate) was “Good”. For the same compound, the “Stability of Lutein in Solvent” value (solvent Hexane) was “Good”, the “Stability of Lutein in Solvent” value (solvent Tetrahydrofuran) was “Good” and the “Stability of Lutein in Solvent” value (solvent Toluene) was “Good”. The “Solubility of Lutein in Solvent” value ([1]; solvent Acetone) was 800 Mg/litre, the “Solubility of Lutein in Solvent” value ([1]; solvent Benzene) was 600 Mg/litre and the “Solubility of Lutein in Solvent” value ([1]; solvent Chloroform) was 6000 Mg/litre. The “Solubility of Lutein in Solvent” value ([1]; solvent Cyclohexanone) was 4000 Mg/litre, the “Solubility of Lutein in Solvent” value ([1]; solvent Dichloromethane) was 800 Mg/litre and the “Solubility of Lutein in Solvent” value ([1]; solvent Ethyl Acetate) was 800 Mg/litre. The “Solubility of Lutein in Solvent” value ([1]; solvent Hexane) was 20 Mg/litre, the “Solubility of Lutein in Solvent” value ([1]; solvent Tetrahydrofuran) was 8000 Mg/litre and the “Solubility of Lutein in Solvent” value ([1]; solvent Toluene) was 400 Mg/litre.
